In patent publication US20130245081A1, “Compositions and Methods for Treating Amyotrophic Lateral Sclerosis” (priority 2009, published 2013):

Legend:
[1] = system: human subjects; conditions: in vivo; cited from earlier work
[2] = system: monkeys; conditions: single oral dose; cited from earlier work
[3] = system: rodents; conditions: single oral dose; cited from earlier work
[4] = system: rodents; test: Single dose toxicity after oral administration, rodents; conditions: in vivo
[5] = system: dogs; conditions: single oral dose; cited from earlier work
[6] = system: patients with ALS; conditions: Part 1

| SMILES | dose shown to cause somnolence in humans [1] | initial single dose not tolerated [1] | maximally tolerated dose for humans (Mirapex product insert) [1] | dose at which major excitation was displayed [2] | doses at which death occurred [3] | human dose equivalent to the lethal rodent dose [4] | human dose equivalent to the lethal rodent dose for a 70 kg individual [4] | dose at which vomiting occurred [5] | effect of riluzole on change from baseline in ALSFRS-R scores ([6]; across all treatment groups) | mean change from baseline to study endpoint in ALSFRS-R score ([6]; placebo with riluzole) |
| --- | --- | --- | --- | --- | --- | --- | --- | --- | --- | --- |
| CCCN[C@H]1CCc2nc(N)sc2C1 [pramipexole, (6S)-2-amino-4,5,6,7-tetrahydro-6-(propylamino)benzothiazole] | 1.5 mg | greater than 0.20 mg | 4.5 mg/day | 3.5 mg/kg | 70 to 105 mg/kg | 7 to 12 mg/kg | 500 to 850 mg | ≥ 0.0007 mg/kg |  |  |
| Nc1nc2ccc(OC(F)(F)F)cc2s1 [riluzole, reference compound] |  |  |  |  |  |  |  |  | no effect | −3.6 |
